Values quoted from earlier work, collected in US10052341B2, “Method for preparing an anthelmintic composition, anthelmintic composition, veterinary treatment method and anthelmintic treatment method” (OURO FINO SAUDE ANIMAL PARTICIPACOES SA, priority 2013, dated 2018).

Conditions: pH 5

| Structure (SMILES) | Water-solubility |
| --- | --- |
| CCCSc1ccc2nc(NC(=O)OC)[nH]c2c1 [albendazole] | 0.53 µg/mL |
| CCC[S+]([O-])c1ccc2[nH]c(NC(=O)OC)nc2c1 (centres unmarked) [albendazole sulfoxide] | 67 µg/mL |
